From patent publication US20070054886A1, “Ras antagonists for treating neurodegenerative disorders” (RAMOT AT TEL AVIV UNIVERSITY, LTD., priority 2003, published 2007)
Where “and” joins values, the source holds several entries; their conditions need not be identical. Identical values can stand only once.

Key:
Ras-GTP = system: Ras-GTP
From the text: The study was approved by the Institutional Animal Care Committee of Hadassah Medical Center and the Hebrew University. Sixty male C57bl mice weighing 25 to 35 g were used. CHI was induced under ether anesthesia, as previously described (Chen et al., 1996) and modified (Yatsiv et al., 2002). Briefly, after induction of ether anesthesia the skull was exposed by a midline longitudinal incision. A tipped Teflon cone was placed in the mid-coronal plane above the left anterior frontal area, 1 mm lateral to the midline. A weight (74 g) was dropped onto the cone (from a height of 15 cm), resulting in a focal injury. After trauma, animals received supporting oxygenation with 100% O2 for no longer than 2 min and were then returned to their cages. Sham-injured mice were anesthetized and their skin was incised, but they were not subjected to CHI.
In the first experiment mice were sacrificed 10, 30, or 120 min after sham-injury or CHI to assess levels of Ras=GTP and phospho=ERK. In the second set of experiments, the animals received FTS (5 mg/kg i.p.) or vehicle, 1 hr after CHI and sham-injured mice received the vehicle (n=4 per group). The mice were sacrificed 2 or 24 hrs after CHI, their brains were removed, and cortical tissue samples adjacent or contra-lateral to the site of injury were homogenized in homogenization buffer containing protease inhibitors and 0.5% Triton X100 as described (Haklai et al., 1998). Debris was removed by centrifugation and protein in the extract was determined with the aid of the Bio-Rad protein assay (Bio-Rad Laboratories, GmbH). Total Ras protein was determined by Western immunoblotting of 30 μg of protein with 1:2500 pan-Ras Ab (Oncogene Research Products, followed by 1:7500 peroxidase goat anti-mouse IgG (Haklai et al., 1998). For determination of GTP-bound Ras in protein samples (1 mg), Ras-GTP was pulled down by glutathione-S-transferase fused to the Ras-binding domain of Raf (GST-RBD) which binds Ras-GTP only. The GST-RBD-Ras-GTP was pulled down with glutathione-agarose beads, and Ras was then determined by immunoblotting with pan-Ras Ab as described above, followed by enhanced chemiluminescence (ECL; Amersham Pharmacia Biotech, Piscataway, N.J., U.S.A) (Paz et al., 2000). The bands were quantified by densitometry with Image Master VDS-CL (Amersham Biotech) using TINA 2.0 software (Ray Tests).

[1] = cited from earlier work
[2] = system: mice subjected to closed head injury (CHI); experiment: Lesion volume after CHI in mice; assay type: in vivo, mouse; settings: day 7 after CHI
Description: (§1) Seven days after CHI, vehicle-treated (n=5) and FTS-treated (n=4) mice were decapitated and their brains were removed (within 1 minute), frozen in powdered dry ice, and kept at −70° C. until used. Consecutive 20-μ cryostat sections of the whole forebrain were cut in the coronal plane, and one in every ten sections (i.e. at intervals of 200μ) was thaw-mounted onto coated microscope glass slides.
(§2) The films were scanned and digitized using PhotoShop and a large bed Umax scanner, and saved in tiff format for accessibility to NIH image software. Using NIH Image routines, the standard curve was measured and used to calibrate regional brain measurements. Morphometry routines were used to measure the lesion area on each section where it was visible. The volume was calculated by multiplying the summed lesion areas by the distance between sections (0.2 mm).

NMDA receptors (NMDAR) = experiment: NMDAR quantitative autoradiography ([3H]MK-801 binding) in brain sections of CHI mice; assay type: in vivo, mouse; settings: seven days after CHI, FTS 5 mg/kg 1 hr after CHI
Description: as §1
NMDAR autoradiography was performed as described (Bowery et al., 1988), with some modifications. […] At the end of incubation, the sections were dipped for 5 seconds in ice-cold buffer, washed for 90 minutes in cold fresh buffer, and then dipped in ice-cold distilled water. The dried tissue sections were exposed to tritium-sensitive film accompanied by commercial calibrated tritium standard scales (Amersham). After exposure for 36 days, the films were developed in Kodak D-19, fixed, and dried. The sections were then stained with cresyl violet for anatomical region placement according to a mouse brain atlas (Paxinos and Franklin, 1997) and for identification of lesions.
as §2

[3] = system: mice subjected to closed head injury (CHI); experiment: Neurobehavioral evaluation (neurological severity score, NSS) of CHI mice; assay type: in vivo, mouse
From the text: The neurological severity score (NSS) is a tool for assessing an animal's functional status. It is based on the ability of the animal to perform different motor and behavioral tasks representing motor ability, balancing, and alertness (Beni-Adani et al., 2001). Scores range from zero, achieved by healthy uninjured animals, to a maximum of 10, indicating severe neurological dysfunction, with failure of all tasks. The NSS obtained 1 hr after trauma reflects the initial severity of injury and is inversely correlated with neurological outcome. Animals were evaluated 1 hour after CHI, and again at 24 and 48 hrs and at 5 and 7 days. To assess the effect of FTS on neurological recovery, mice were randomly assigned to treatment with either FTS or vehicle (n=10 per group), administered immediately after the initial NSS evaluation. Each animal was assessed by an observer who was blinded to the treatment it had received. The extent of recovery (ΔNSS) was calculated as the difference between the NSS at 1 hr and at any subsequent time point. Thus, a higher ΔNSS reflects better recovery. This parameter therefore serves as a tool for evaluation of drug effects.

[4] = 2 hrs after CHI, drug i.p. 1 hr after CHI, FTS 5 mg/kg, MK-801 0.5 mg/kg or 1 mg/kg, mean±SD
[5] = left (ipsilateral) hemisphere, mean ± SD, 4 mice
[6] = right (contra-lateral) hemisphere, mean ± SD, 4 mice

CC(C)=CCC/C(C)=C/CC/C(C)=C/CSc1ccccc1C(=O)O [FTS, farnesyl-thiosalicylic acid]
inhibition of the CHI-induced increase in Ras-GTP, left (contused) hemisphere (Ras-GTP; [4]): 81.7±10.0% and 75.2±6.8% and 82% and 82±10% | inhibition of the CHI-induced increase in Ras-GTP, right (contra-lateral) hemisphere (Ras-GTP; [4]): 70.4±12.0% and 67.2±7.1% and 70±12% | inhibition of Ras-GTP, range over both hemispheres (Ras-GTP; CHI mice, 2 hrs after CHI): 70-82% | effect on the total amount of Ras in the brain (Ras-GTP; FTS 5 mg/kg i.p. 1 hr after CHI): no effect | effect on Ras-GTP levels 24 hrs after CHI (Ras-GTP; FTS 5 mg/kg i.p. 1 hr after CHI, assessed 24 hrs after CHI): almost no effect | side effects at the 5 mg/kg dose in animal models of neoplasticity ([1]; 5 mg/kg FTS, previous studies (Jansen et al., 1999; Kloog et al., 1999)): without inadvertent side effects | toxicity and adverse side effects in animals ([1]; Kloog et al., 1999): not to be toxic and have no adverse side effects | mean lesion volume ([2]; FTS 5 mg/kg 1 hr after CHI, mean±SD of 4 animals, control 155±41 μL, p<0.07): 87 ± 53 µL | reduction in lesion volume (lesion size) ([2]; FTS 5 mg/kg vs vehicle, trend, p<0.07): 50% | lesion volume, range ([2]; FTS 5 mg/kg, 4 animals): 37 to 161 µL | effect of trauma on the binding of [3H]-MK-801 to the NMDA receptors (NMDA receptors (NMDAR); ANOVA, no significant difference between sides (P=0.5)): completely reversed | NMDA-receptor density, dorsal striatum, left (NMDA receptors (NMDAR); [5]): 4.32 ± 0.32 nCi of [^3H]-MK-801 specifically bound/mg | NMDA-receptor density, frontal motor cortex, left (NMDA receptors (NMDAR); [5]): 6.32 ± 2.12 nCi of [^3H]-MK-801 specifically bound/mg | NMDA-receptor density, hippocampus CA1, left (NMDA receptors (NMDAR); [5]): 9.85 ± 1.34 nCi of [^3H]-MK-801 specifically bound/mg | NMDA-receptor density, hippocampus CA3, left (NMDA receptors (NMDAR); [5]): 7.69 ± 0.96 nCi of [^3H]-MK-801 specifically bound/mg | NMDA-receptor density, parietal cortex, left (NMDA receptors (NMDAR); [5]): 5.69 ± 1.18 nCi of [^3H]-MK-801 specifically bound/mg | NMDA-receptor density, perirhinal cortex, left (NMDA receptors (NMDAR); [5]): 5.92 ± 0.72 nCi of [^3H]-MK-801 specifically bound/mg | NMDA-receptor density, piriform cortex, left (NMDA receptors (NMDAR); [5]): 5.65 ± 1.54 nCi of [^3H]-MK-801 specifically bound/mg | NMDA-receptor density, ventral striatum, left (NMDA receptors (NMDAR); [5]): 4.06 ± 1.82 nCi of [^3H]-MK-801 specifically bound/mg | NMDA-receptor density, dorsal striatum, right (NMDA receptors (NMDAR); [6]): 5.45 ± 1.72 nCi of [^3H]-MK-801 specifically bound/mg | NMDA-receptor density, frontal motor cortex, right (NMDA receptors (NMDAR); [6]): 6.63 ± 1.7 nCi of [^3H]-MK-801 specifically bound/mg | NMDA-receptor density, hippocampus CA1, right (NMDA receptors (NMDAR); [6]): 9.25 ± 0.32 nCi of [^3H]-MK-801 specifically bound/mg | NMDA-receptor density, hippocampus CA3, right (NMDA receptors (NMDAR); [6]): 7.23 ± 0.42 nCi of [^3H]-MK-801 specifically bound/mg | NMDA-receptor density, parietal cortex, right (NMDA receptors (NMDAR); [6]): 7.04 ± 1.46 nCi of [^3H]-MK-801 specifically bound/mg | NMDA-receptor density, perirhinal cortex, right (NMDA receptors (NMDAR); [6]): 5.97 ± 0.88 nCi of [^3H]-MK-801 specifically bound/mg | NMDA-receptor density, piriform cortex, right (NMDA receptors (NMDAR); [6]): 5.57 ± 0.84 nCi of [^3H]-MK-801 specifically bound/mg | NMDA-receptor density, ventral striatum, right (NMDA receptors (NMDAR); [6]): 5.21 ± 0.54 nCi of [^3H]-MK-801 specifically bound/mg | median recovery after seven days (ΔNSS) ([3]; mice processed for autoradiography and histology (4 FTS-treated), vehicle 0, p<0.05): 2 | mean ΔNSS on day 7 after injury ([3]; mice, FTS 5 mg/kg i.p. 1 hr after CHI, n=10, controls 1.7): 4.2 | NSS 1 hour after injury ([3]; mice, baseline before treatment, FTS-treatment group, n=10, mean±SD, scale 0-10): 6.7±0.3 | reduction of CHI-induced neurological deficits / improvement of neurological status (extent of recovery) ([3]; mice, single dose FTS 5 mg/kg, up to 7 days after CHI, P<0.0001): 60%
